Measured values taken from patent publication US6358977B1, “Use of 4-piperidinemethanol derivatives in treatment of neurodevelopmental disorders” (A. Carlsson Research AB, priority 1998, dated 2002).
“Also recorded” adds a separate entry of the source.

System: Male NMRI mice
Assay: Animal model of autism: defective habituation (locomotor activity) in mice rendered hypoglutamatergic with MK-801
Format: in vivo
Source text: The inventor of the present invention and her coworkers have developed an animal model of autism, where mice are rendered hypoglutamatergic by treatment with the glutamate antagonist MK-801 (dizocilpine). Similarly to persons with autism, these hypoglutamatergic animals display defective habituation, perseverant behavior (e.g. relentless forward locomotion, so-called “obstinate progression”), stereotypies, a meager behavioral repertoire and difficulties to change behavioral program. The researchers have chosen to focus their investigation on the defective habituation, since this variable is easily quantified, and a prominent feature of autism.
Male NMRI mice (B&K Universal AB, Sollentuna, Sweden) weighing 25-30g at the time of testing were used in the experiments. Animals were housed in groups of about 20 per cage for at least one week before the experiment was carried out, with free access to water and food. Temperature: 20-22° C.; 12h light-dark cycle (lights on 6 AM).
(+)-MK-801 hydrogen maleate (dizocilpine; Research Biochemical Inc) was dissolved in physiological saline. M100907 [(+)-(R)-α-(2,3-dimethoxyphenyl)-1-[2-(4-fluorophenyl) ethyl]-4-piperidinemethanol; courtesy Hoechst Marion Roussel, Inc USA] was dissolved in a few microliters of acetic acid and a 5.5% glucose solution. The injection volume was 10 ml/kg. Control. animals were always given the same solvent as the drug was dissolved in.
Locomotor activity was measured using activity meters (Diaiscan animal activity monitor, model RXYZM (16) Tao, Omnitech Electronics, Columbus, Ohio, USA). The equipment consists of eight light and sound attenuated boxes (42×42×30 cm) with infrared photo sensors along the front and the side near the floor of the boxes.
When moved to a novel environment, normal mice display an initial phase of exploratory activity lasting about 30 minutes. […] The results shown in the figure are medians and upper and lower quartiles.
The inventor and […] co-workers then tested a compound according to the invention, namely M100907. […] M100907 was administered intraperitoneally immediately before the commencement of the behavioral recording. The M100907 doses were 0.001., 0.01 and 0.1 mg/kg, respectively. The results shown are medians and upper and lower quartiles (veh=vehicle=controls).

Structure (SMILES): COc1cccc([C@H](O)C2CCN(CCc3ccc(F)cc3)CC2)c1OC [M100907, R-(+)-α-(2,3-dimethoxyphenyl)-1-[2-(4-fluorophenylethyl)]-4-piperidine-methanol]
- effect on MK-801-induced deficient habituation (loss of habituation, FIG. 2) (M100907 0.001, 0.01 and 0.1 mg/kg intraperitoneally immediately before behavioral recording, MK-801-treated mice, ordinate m/30 min): displays anti-autistic effects; also recorded: alleviates the deficient habituation
- interference with normal behavior (M100907 0.001, 0.01 and 0.1 mg/kg intraperitoneally, mice): without interfering with normal behavior
- hyperactivity induced by the glutamate antagonist MK-801 (mouse, M100907 intraperitoneally): reducing the hyperactivity

Structure (SMILES): C[C@]12N[C@H](Cc3ccccc31)c1ccccc12 [MK-801, reference compound]
- habituation in novel environment (loss of habituation, FIG. 1) (MK-801 0.3 or 0.8 mg/kg intraperitoneally immediately before 70 minutes recording, ordinate counts/5 min interval): deficient habituation; also recorded: impaired habituation
